In US7504517B2, “Kv1.5 potassium channel inhibitors” (Wyeth, priority 2006, dated 2009):
Counter-ions that a name gives are not always drawn.

Legend:
Kv1.5 = molecular target: T1, Kv1.5 (Homo sapiens, UniProt P22460); experiment: Kv1.5 Patch Clamp EP; format: cell-based; settings: whole cell patch clamp; for inhibition at 1 µM: single point, Kv1.5 stably over expressed in HEK or LTK- cells; for IC50: HEK or LTK- cells, at least four concentrations, n=3
T1 construct: expressed in transfected cells; host or cells: HEK or LTK- cells
Experimental: The external solution is standard Tyrodes solution. […] Inhibition was measured at the end of the 1 second pulses and expressed relative to controls. Initial Kv1.5 inhibition is estimated by single point determinations done at 1 μM.

L-type calcium channels = experiment: FLIPR L-Type Calcium Channel Assay; format: cell-based, murine; settings: HL-1 cells expressing endogenous L-type calcium channels; calcium influx after 20 mM KCl; read-out: L-type Ca^2+ IC50
How it was run: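 After a 15 min compound pre-incubation at 37 °C with 2.5 mM probenecid, L-type channels were opened by depolarising with 20 mM KCl (final). Fluorescence (488 nm excitation, 510–570 nm emission) was read for 5 min.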

HERG = HERG (Homo sapiens, UniProt Q12809); experiment: HERG Patch Clamp EP; settings: for inhibition at 10 µM: human, HEK cells stably overexpressing HERG
Sequence of HERG (Q12809 whole entry): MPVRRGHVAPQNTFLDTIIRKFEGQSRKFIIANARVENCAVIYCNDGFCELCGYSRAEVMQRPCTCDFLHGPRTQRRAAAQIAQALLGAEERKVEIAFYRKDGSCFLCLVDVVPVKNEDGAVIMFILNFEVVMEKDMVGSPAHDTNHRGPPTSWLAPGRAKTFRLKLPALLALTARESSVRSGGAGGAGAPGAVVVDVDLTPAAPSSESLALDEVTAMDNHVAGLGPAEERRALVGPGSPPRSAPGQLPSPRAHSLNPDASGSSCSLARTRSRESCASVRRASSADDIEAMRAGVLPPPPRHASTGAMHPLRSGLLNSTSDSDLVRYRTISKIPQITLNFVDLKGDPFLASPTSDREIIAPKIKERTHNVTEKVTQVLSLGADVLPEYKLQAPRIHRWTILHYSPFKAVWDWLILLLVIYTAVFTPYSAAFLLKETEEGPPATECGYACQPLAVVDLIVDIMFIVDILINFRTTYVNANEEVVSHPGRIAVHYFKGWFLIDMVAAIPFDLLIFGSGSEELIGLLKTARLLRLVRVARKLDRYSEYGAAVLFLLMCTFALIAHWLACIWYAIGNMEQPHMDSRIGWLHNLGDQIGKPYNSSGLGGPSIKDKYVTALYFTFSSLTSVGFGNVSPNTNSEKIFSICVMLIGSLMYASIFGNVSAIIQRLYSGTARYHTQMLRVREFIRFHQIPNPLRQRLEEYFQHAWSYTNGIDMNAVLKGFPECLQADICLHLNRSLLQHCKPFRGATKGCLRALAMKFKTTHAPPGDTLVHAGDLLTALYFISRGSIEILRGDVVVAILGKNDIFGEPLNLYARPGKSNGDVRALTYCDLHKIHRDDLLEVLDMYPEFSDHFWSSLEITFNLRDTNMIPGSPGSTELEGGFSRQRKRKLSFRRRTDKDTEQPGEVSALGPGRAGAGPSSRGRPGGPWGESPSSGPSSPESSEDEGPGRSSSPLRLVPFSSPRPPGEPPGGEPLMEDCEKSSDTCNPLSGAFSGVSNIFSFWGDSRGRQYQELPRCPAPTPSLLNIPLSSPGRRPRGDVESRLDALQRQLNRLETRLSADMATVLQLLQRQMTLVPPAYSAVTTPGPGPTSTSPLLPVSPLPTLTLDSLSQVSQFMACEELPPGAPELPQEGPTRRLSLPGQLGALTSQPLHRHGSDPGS
Experimental: HERG currents are recorded by the whole cell mode of patch clamp electrophysiology as described by Hamill et al.^3 HERG is stably over expressed in HEK cells. Microelectrodes are pulled from borosilicate glass (TW150) and heat polished (tip resistance, 1.5 to 3 megaohms). The external solution is standard Tyrodes solution. The internal (microelectrode) solution contained: 110 mM KCl, 5 mM K2ATP, 5 mM K4BAPTA, 1 mM MgCl2 and 10 mM HEPES, adjusted to pH 7.2 with KOH. […] Compounds are prepared as 10-20 mM DMSO stocks and diluted to appropriate test concentrations. […] Inhibition of HERG is measured at the peak of the tail currents and expressed relative to controls. Initial HERG activity is estimated by single point determinations run at 10 μM. Concentration response curves are generated for appropriate compounds utilizing at least four concentrations and an n=3. Curve fitting and IC50 estimating are done using Graphpad software (Ver. 4). • 1.

T1 sequence (P22460 whole entry): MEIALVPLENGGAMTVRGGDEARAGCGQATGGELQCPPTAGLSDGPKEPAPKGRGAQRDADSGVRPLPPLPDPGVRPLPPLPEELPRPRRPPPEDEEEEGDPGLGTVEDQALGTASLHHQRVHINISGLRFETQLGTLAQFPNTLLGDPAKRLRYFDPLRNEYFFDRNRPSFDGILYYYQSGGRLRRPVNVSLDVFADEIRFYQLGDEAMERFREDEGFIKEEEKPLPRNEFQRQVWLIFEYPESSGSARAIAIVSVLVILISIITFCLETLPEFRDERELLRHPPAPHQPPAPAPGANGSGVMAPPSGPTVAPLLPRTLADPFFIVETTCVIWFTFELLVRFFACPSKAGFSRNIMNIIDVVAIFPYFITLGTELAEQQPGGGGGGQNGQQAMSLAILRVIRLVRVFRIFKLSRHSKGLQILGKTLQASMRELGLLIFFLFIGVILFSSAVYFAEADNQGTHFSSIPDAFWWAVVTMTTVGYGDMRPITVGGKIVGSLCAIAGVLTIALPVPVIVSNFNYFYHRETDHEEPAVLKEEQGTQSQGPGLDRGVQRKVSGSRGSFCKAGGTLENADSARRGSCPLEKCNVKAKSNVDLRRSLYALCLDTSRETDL

Compound | inhibition at 1 µM (Kv1.5) [%] | IC50 (L-type calcium channels) [µM] | IC50 (Kv1.5) [µM] | inhibition at 10 µM (HERG) [%] | IC50 (HERG) [µM]
COc1ccc(CCCN2C(=O)N(NS(=O)(=O)CS(C)(=O)=O)CC2c2ccc(C3CC3)cc2)cc1 (centres unmarked) [Compound 127, N-{4-(4-cyclopropylphenyl)-3-[3-(4-methoxyphenyl)propyl]-2-oxoimidazolidin-1-yl}-1-(methylsulfonyl)methanesulfonamide] | 91 | 19 | – | 54 | –
COc1ccc(CCN2C(=O)N(NS(=O)(=O)Cc3cccnc3)CC2c2ccc(OC)cc2)cc1 (centres unmarked) [Compound 66, 1-[(Pyridin-3-yl)methylsulfonyl]amino-3-[2-(4-methoxyphenyl)ethyl]-4-(4-methoxyphenyl)-2-imidazolidinone] | 86 | 30 | 0.257 | – | 12.6
COc1ccc(CCN2C(=O)N(NS(=O)(=O)CC(=O)NC3CC3)CC2c2ccc(C3CC3)cc2)cc1 (centres unmarked) [Compound 51, 1-[[2-(Cyclopropylamino)-2-oxoethyl]sulfonylamino]-3-[2-(4-methoxyphenyl)ethyl]-4-(4-cyclopropylphenyl)-2-imidazolidinone] | 87 | 21 | – | 20 | –
COc1ccc(CCN2C(=O)N(NS(C)(=O)=O)C[C@H]2c2ccc(OC(F)F)cc2)cc1 [Compound 170, N-{(4R)-4-[4-(difluoromethoxy)phenyl]-3-[2-(4-methoxyphenyl)ethyl]-2-oxoimidazolidin-1-yl}methanesulfonamide] | 49 | 30 | – | 62 | –
COc1ccc(CCN2C(=O)N(NS(C)(=O)=O)C[C@H]2c2ccc(OC)cc2)cc1 [Compound 106, 1-(Methylsulfonylamino)-3-[2-(4-methoxyphenyl)ethyl]-4-(R)-(4-methoxyphenyl)-2-imidazolidinone] | 74 | 30 | 0.474 | 17 | 35
COc1ccc(CCN2C(=O)N(NS(C)(=O)=O)CC2c2ccc(OC(F)F)cc2)cc1 (centres unmarked) [Compound 26, 1-[(Methylsulfonyl)amino]-3-[2-(4-methoxyphenyl)ethyl]-4-(4-difluoro-methoxyphenyl)-2-imidazolidinone] | 66 | 17.5 | 0.716 | 76 | 4.1
COc1ccc(CCCN2C(=O)N(NS(=O)(=O)CC(N)=O)CC2c2ccc(C3CC3)cc2)cc1 (centres unmarked) [Compound 104, 1-[(2-Amino-2-oxoethyl)sulfonylamino]-3-[3-(4-methoxyphenyl)propyl]-4-(4-cyclopropylphenyl)-2-imidazolidinone] | 87 | 21 | – | 56 | –
COc1ccc(CCN2C(=O)N(NS(C)(=O)=O)CC2c2ccc(C)c(C)c2)cc1 (centres unmarked) [Compound 7, 1-(Methylsulfonylamino)-3-[2-(4-methoxyphenyl)ethyl]-4-(3,4-dimethylphenyl)-2-imidazolidinone] | 92 | 43 | 0.232 | 16 | –
COc1ccc(CCN2C(=O)N(NS(N)(=O)=O)CC2c2ccc(C(C)(C)C)cc2)cc1 (centres unmarked) [Compound 9, 1-(Aminosulfonylamino)-3-[2-(4-methoxyphenyl)ethyl]-4-[4-(tert-butyl)phenyl]-2-imidazolidinone] | 90 | 23 | 0.689 | 62 | 7.3
COc1ccc(CCCN2C(=O)N(NS(N)(=O)=O)CC2c2ccc(OC)cc2)cc1 (centres unmarked) [Compound 44, 1-(Sulfamoylamino)-3-[3-(4-methoxyphenyl)propyl]-4-[(4-methoxy)phenyl]-2-imidazolidinone] | 60 | 25 | – | 22 | –
COc1ccc(CCN2C(=O)N(NS(C)(=O)=O)CC2c2ccc(C)cc2)cc1 (centres unmarked) [Compound 20, 1-(Methylsulfonylamino)-3-[(4-methoxyphenyl)ethyl]-4-(4-methylphenyl)-2-imidazolidinone] | 73 | 30 | – | 15 | –
COc1ccc(CCN2C(=O)N(NS(=O)(=O)CC(=O)N(C)C)CC2c2ccc(C3CC3)cc2)cc1 (centres unmarked) [Compound 54, 1-[[2-(Dimethylamino)-2-oxoethyl]sulfonylamino]-3-[2-(4-methoxyphenyl)-ethyl]-4-(4-cyclopropylphenyl)-2-imidazolidinone] | 80 | 30 | – | 46 | –
COc1ccc(CCN2C(=O)N(NS(C)(=O)=O)CC2c2ccc(OC)cc2)cc1 (centres unmarked) [Compound 23, 1-(Methylsulfonylamino)-3-[2-(4-methoxyphenyl)ethyl]-4-(4-methoxyphenyl)-2-imidazolidinone] | 66 | 30 | 0.703 | 21 | 23.6
COc1ccc(CCN2C(=O)N(NS(=O)(=O)CF)CC2c2ccc(C3CC3)cc2)cc1 (centres unmarked) [Compound 34, 1-(Fluoromethylsulfonylamino)-3-[2-(4-methoxyphenyl)ethyl]-4-(4-cyclopropyl-phenyl)-2-imidazolidinone] | 98 | 18 | – | 38 | –

These reach a lower IC50 (L-type calcium channels). Values come first.

inhibition at 1 µM (Kv1.5) [%] | IC50 (L-type calcium channels) [µM] | IC50 (Kv1.5) [µM] | Compound | inhibition at 10 µM (HERG) [%] | IC50 (HERG) [µM]
89 | 16 | 0.184 | COc1ccc(CCN2C(=O)N(NS(C)(=O)=O)CC2c2ccc(C3CC3)cc2)cc1 (centres unmarked) [Compound 28, 1-[(Methylsulfonyl)amino]-3-[(4-methoxyphenyl)ethyl]-4-(4-cyclopropylphenyl)-2-imidazolidinone] | 30 | 10.3
46 | 16 | – | COc1ccc(CCN2C(=O)N(N(CCn3ccnc3)C(C)=O)CC2c2ccc(C(C)(C)C)cc2)cc1 (centres unmarked) [Compound 100, 1-N-[2-(Imidazol-1-yl)ethyl]-N-[acetyl]amino-3-[2-(4-methoxyphenyl)ethyl]-4-[(4-tert-butyl)phenyl]-2-imidazolidinone] | 92 | –
83 | 16 | – | CS(=O)(=O)NN1CC(c2ccc(C3CC3)cc2)N(CCCc2ccccc2)C1=O (centres unmarked) [Compound 45, 1-(Methylsulfonylamino)-3-(3-phenylpropyl)-4-(4-cyclopropylphenyl)-2-imidazolidinone] | 55 | –
94 | 13 | – | COc1ccc(CCN2C(=O)N(NC(C)=O)CC2Cc2ccc(C(C)(C)C)cc2)cc1 (centres unmarked) [Compound 71, 1-(Acetylamino)-3-[2-(4-methoxyphenyl)ethyl]-4-[(4-tert-butyl)benzyl]-2-imidazolidinone] | 30 | –
53 | 12 | – | COc1ccc(CCN2C(=O)N(N)CC2c2ccc(C3CC3)cc2)cc1 (centres unmarked) [Compound 6, 1-Amino-3-[2-(4-methoxyphenyl)ethyl]-4-(4-cyclopropylphenyl)-2-imidazolidinone 4-methylbenzenesulfonic acid salt] | 29 | –
94 | 11 | 0.399 | COc1ccc(CCN2C(=O)N(NCc3ccccc3)CC2c2ccc(C)c(C)c2)cc1 (centres unmarked) [Compound 88, 1-Benzylamino-4-(3,4-dimethylphenyl)-3-[2-(4-methoxyphenyl)ethyl]-2-imidazolidinone] | 90 | –
67 | 10 | 0.57 | COc1ccc(CCN2C(=O)N(NCc3ccncc3)CC2c2ccc(C)c(C)c2)cc1 (centres unmarked) [Compound 84, 4-(3,4-Dimethylphenyl)-3-[2-(4-methoxyphenyl)ethyl]-1-[(pyridin-4-ylmethyl)amino]-imidazolidin-2-one] | 73 | –
55 | 9.8 | – | COc1ccc(CCN2C(=O)N(NS(C)(=O)=O)C[C@H]2c2ccc(C(C)(C)C)cc2)cc1 [Compound 172, N-{(4R)-4-(4-tert-butylphenyl)-3-[2-(4-methoxyphenyl)ethyl]-2-oxoimidazolidin-1-yl}methanesulfonamide] | 51 | –
95 | 6.3 | – | COc1ccc(CCN2C(=O)N(NS(=O)(=O)Cc3ccccc3)CC2c2ccc(OC)cc2)cc1 (centres unmarked) [Compound 63, 1-[(Phenylmethyl)sulfonylamino]-3-[2-(4-methoxyphenyl)ethyl]-4-(4-methoxyphenyl)-2-imidazolidinone] | 44 | –
88 | 3.3 | – | CCCS(=O)(=O)NN1CC(c2ccc(C3CC3)cc2)N(CCc2ccc(OC)cc2)C1=O (centres unmarked) [Compound 30, 1-(Propylsulfonylamino)-3-[(4-methoxyphenyl)ethyl]-4-(4-cyclopropylphenyl)-2-imidazolidinone] | 62 | –
92 | 3.3 | – | COc1ccc(CCN2C(=O)N(NC(=O)OC(C)(C)C)CC2c2ccc(C)c(C)c2)cc1 (centres unmarked) [Compound 85, {4-(3,4-dimethylphenyl)-3-[2-(4-methoxyphenyl)ethyl]-2-oxo-imidazolidin-1-yl}-carbamic acid tert-butyl ester] | 52 | –
96 | 2.8 | – | COc1ccc(CCN2C(=O)N(NCc3ccc(C#N)cc3)CC2c2ccc(C)c(C)c2)cc1 (centres unmarked) [Compound 83, 1-[(4-Cyanophenylmethyl)amino]-3-[2-(4-methoxyphenyl)ethyl]-4-(3,4-dimethylphenyl)-2-imidazolidinone] | 97 | –
